Measured values as given in PubChem BioAssay AID330 (DTP/NCI, 2004).
Where “and” joins values, the source holds several entries; their conditions need not be identical. Equal values may be shown once. Toxic doses and inconclusive results are not listed. How the source made its calls: active means survival T/C of 150% or more; inactive means T/C below 125% in these data.

Test system: P388 leukemia ip, CD2F1 mice, survival T/C
Assay: NCI In Vivo Anticancer Drug Screen. Data for tumor model P388 Leukemia (intraperitoneal) in CD2F1 (CDF1) mice
Details: endpoint: median survival time, higher = longer survival
Procedure, shortened: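 Mice carrying the transplanted tumor received test compound or vehicle. Survival was recorded in each group, and the value is the treated-group measurement divided by that of the vehicle-treated control group.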

[1] = dose: 25.0 mg/kg/injection, schedule: Q01DX009 (ip), vehicle: saline with Tween-80
[2] = dose: 50.0 mg/kg/injection, schedule: Q01DX009 (ip), vehicle: saline with Tween-80
[3] = dose: 100.0 mg/kg/injection, schedule: Q01DX009 (ip), vehicle: saline with Tween-80
[4] = dose: 50.0 mg/kg/injection, schedule: Q01DX005 (ip), vehicle: Klucel (hydroxypropylcellulose) (HPC)
[5] = dose: 100.0 mg/kg/injection, schedule: Q01DX005 (ip), vehicle: Klucel (hydroxypropylcellulose) (HPC)
[6] = dose: 200.0 mg/kg/injection, schedule: Q01DX005 (ip), vehicle: Klucel (hydroxypropylcellulose) (HPC)
[7] = dose: 50.0 mg/kg/injection, schedule: Q01DX009 (ip), vehicle: saline
[8] = dose: 100.0 mg/kg/injection, schedule: Q01DX009 (ip), vehicle: saline
[9] = dose: 200.0 mg/kg/injection, schedule: Q01DX009 (ip), vehicle: saline
[10] = dose: 60.0 mg/kg/injection, schedule: Q01DX005 (ip), vehicle: saline with Tween-80
[11] = dose: 120.0 mg/kg/injection, schedule: Q01DX005 (ip), vehicle: saline with Tween-80
[12] = dose: 240.0 mg/kg/injection, schedule: Q01DX005 (ip), vehicle: saline with Tween-80
[13] = dose: 50.0 mg/kg/injection, schedule: Q01DX005 (ip), vehicle: saline with Tween-80
[14] = dose: 100.0 mg/kg/injection, schedule: Q01DX005 (ip), vehicle: saline with Tween-80
[15] = dose: 200.0 mg/kg/injection, schedule: Q01DX005 (ip), vehicle: saline with Tween-80

Measured: T/C

O=C(O)c1cc(=O)c2cc3c(=O)cc(C(=O)O)[nH]c3c(Cl)c2[nH]1
inactive: [1] 96 % of control | [2] 96 % of control | [3] 100 % of control

O=C1c2ccccc2CC1CN1CCCCC1 (stereo unspecified)
inactive: dose: 6.25 mg/kg/injection, schedule: Q04DX002 (ip), vehicle: saline 108 % of control | dose: 12.5 mg/kg/injection, schedule: Q04DX002 (ip), vehicle: saline 100 % of control | dose: 25.0 mg/kg/injection, schedule: Q04DX002 (ip), vehicle: saline 100 % of control

C=C1C(=O)OC2/C=C(\C)C(OC(C)=O)C/C=C(\C)CC(OC(=O)/C(=C/CO)CO)C12 (stereo unspecified)
inactive: dose: 100.0 mg/kg/injection, schedule: Q01DX001 (ip), vehicle: Klucel (hydroxypropylcellulose) (HPC) 99 % of control | dose: 200.0 mg/kg/injection, schedule: Q01DX001 (ip), vehicle: Klucel (hydroxypropylcellulose) (HPC) 99 % of control | dose: 400.0 mg/kg/injection, schedule: Q01DX001 (ip), vehicle: Klucel (hydroxypropylcellulose) (HPC) 123 % of control

CN1CCC2(CC1)OCCO2
inactive: dose: 25.0 mg/kg/injection, schedule: Q01DX005 (ip), vehicle: Klucel (hydroxypropylcellulose) (HPC) 100 % of control | [4] 100 % of control | [5] 89 % of control | [6] 89 % of control

Nc1cnccc1Nc1ccncc1
inactive: dose: 50.0 mg/kg/injection, schedule: Q01DX001 (ip), vehicle: saline with Tween-80 95 % of control | dose: 100.0 mg/kg/injection, schedule: Q01DX001 (ip), vehicle: saline with Tween-80 100 % of control

O=C1C=CC(=Nc2ccccc2)O1
inactive: dose: 2.5 mg/kg/injection, schedule: Q01DX009 (ip), vehicle: saline with Tween-80 100 % of control | dose: 5.0 mg/kg/injection, schedule: Q01DX009 (ip), vehicle: saline with Tween-80 100 % of control | dose: 10.0 mg/kg/injection, schedule: Q01DX009 (ip), vehicle: saline with Tween-80 95 % of control

[Na+]
inactive: [7] 95 % of control | [8] 100 % of control | [9] 98 % of control | dose: 0.5 % in 0.5 ml injection vol, schedule: Q01DX009 (ip), vehicle: water 105 % of control and 96 % of control | dose: 1.0 % in 0.5 ml injection vol, schedule: Q01DX009 (ip), vehicle: water 100 % of control and 96 % of control | dose: 2.0 % in 0.5 ml injection vol, schedule: Q01DX009 (ip), vehicle: water 102 % of control and 106 % of control | dose: 3.12 % in 0.5 ml injection vol, schedule: Q01DX009 (ip), vehicle: water 101 % of control and 92 % of control | dose: 4.0 % in 0.5 ml injection vol, schedule: Q01DX009 (ip), vehicle: water 100 % of control and 90 % of control | dose: 6.25 % in 0.5 ml injection vol, schedule: Q01DX009 (ip), vehicle: water 108 % of control and 114 % of control | dose: 8.0 % in 0.5 ml injection vol, schedule: Q01DX009 (ip), vehicle: water 99 % of control and 104 % of control and 108 % of control

C(=C/c1cc2cc(C3=NCCN3)ccc2o1)/C=C/c1cc2cc(C3=NCCN3)ccc2o1
inactive: dose: 100.0 mg/kg/injection, schedule: Q04DX003 (ip), vehicle: saline 106 % of control | dose: 200.0 mg/kg/injection, schedule: Q04DX003 (ip), vehicle: saline 104 % of control | dose: 400.0 mg/kg/injection, schedule: Q04DX003 (ip), vehicle: saline 110 % of control

COc1cccc(C2c3cc4c(cc3OC(C)(N3CCCC3)C2C)OCO4)c1OC (stereo unspecified)
inactive: dose: 60.0 mg/kg/injection, schedule: Q01DX005 (ip), vehicle: Klucel (hydroxypropylcellulose) (HPC) 99 % of control | dose: 120.0 mg/kg/injection, schedule: Q01DX005 (ip), vehicle: Klucel (hydroxypropylcellulose) (HPC) 88 % of control

[O-][n+]1cnn2ccccc21
inactive: [10] 100 % of control | [11] 106 % of control | [12] 102 % of control

CC12CC1CCCC2OC(=O)c1cc([N+](=O)[O-])cc([N+](=O)[O-])c1 (stereo unspecified)
inactive: dose: 100.0 mg/kg/injection, schedule: Q04DX003 (ip), vehicle: saline with Tween-80 100 % of control | dose: 200.0 mg/kg/injection, schedule: Q04DX003 (ip), vehicle: saline with Tween-80 95 % of control | dose: 400.0 mg/kg/injection, schedule: Q04DX003 (ip), vehicle: saline with Tween-80 98 % of control

Nc1nc(-c2cc(C(c3ccccc3)c3ccccc3)nc(N)n2)cc(C(c2ccccc2)c2ccccc2)n1
inactive: [10] 105 % of control | [11] 109 % of control | [12] 101 % of control

CC1NCCc2[nH]cnc21 (stereo unspecified)
inactive: [7] 96 % of control | [8] 100 % of control | [9] 105 % of control

O=C(O)CCc1cc(Br)no1
inactive: [7] 101 % of control | [8] 93 % of control | [9] 93 % of control

COC(=O)c1ccc(O)cc1
inactive: dose: 12.5 mg/kg/injection, schedule: Q01DX005 (ip), vehicle: saline with Tween-80 98 % of control | dose: 25.0 mg/kg/injection, schedule: Q01DX005 (ip), vehicle: saline with Tween-80 99 % of control | [13] 100 % of control | [14] 100 % of control | [15] 105 % of control | dose: 400.0 mg/kg/injection, schedule: Q01DX005 (ip), vehicle: saline with Tween-80 100 % of control

C1CCC2[N-]CCCC2C1.C1CCC2[N-]CCCC2C1.O=[N+]([O-])O.O=[N+]([O-])O.[Cu+2] (stereo unspecified)
inactive: dose: 7.5 mg/kg/injection, schedule: Q01DX005 (ip), vehicle: saline with Tween-80 99 % of control | dose: 15.0 mg/kg/injection, schedule: Q01DX005 (ip), vehicle: saline with Tween-80 99 % of control

COc1ccccc1[B-]12OCC[N+]1(CNC(=O)C1=C(O)C3(O)C(=O)C4=C(O)c5c(O)cccc5C(C)(O)C4CC3C(N(C)C)C1=O)CCO2 (stereo unspecified)
inactive: [4] 105 % of control | [5] 108 % of control | [6] 112 % of control

Nc1ncc2c(=O)c3c(ccc4ccccc43)oc2n1
inactive: dose: 12.5 mg/kg/injection, schedule: Q01DX009 (ip), vehicle: saline with Tween-80 96 % of control | [1] 98 % of control | [2] 90 % of control | [3] 87 % of control

CC(=O)OC12CC3CCC4C(CCC5(C)C(C(C)CCCC(C)C)CCC45)C3(C)CC1C(Cl)C2=O (stereo unspecified)
inactive: [13] 99 % of control | [14] 96 % of control | [15] 96 % of control
